Test results from patent publication US20050096360A1, “Inhibitors of semicarbazide-sensitive amine oxidase (SSAO) and VAP-1 mediated adhesion useful for treatment of diseases” (priority 2003, published 2005).
Where a name gives a salt, the structure may show the parent alone. Read-outs that look alike come from different tables or passages of the source.

How the values were obtained:
recombinant human MAO-A = target: T1, recombinant human MAO-A (Homo sapiens, UniProt P21397); test: Inhibition of MAO-A activity, colorimetric; assay type: biochemical; conditions: for Specificity for SSAO vs. MAO-A: ratio IC50 MAO-A to IC50 SSAO
T1 construct: purchased BD Biosciences (MA, USA)
T1 sequence (P21397 1-527): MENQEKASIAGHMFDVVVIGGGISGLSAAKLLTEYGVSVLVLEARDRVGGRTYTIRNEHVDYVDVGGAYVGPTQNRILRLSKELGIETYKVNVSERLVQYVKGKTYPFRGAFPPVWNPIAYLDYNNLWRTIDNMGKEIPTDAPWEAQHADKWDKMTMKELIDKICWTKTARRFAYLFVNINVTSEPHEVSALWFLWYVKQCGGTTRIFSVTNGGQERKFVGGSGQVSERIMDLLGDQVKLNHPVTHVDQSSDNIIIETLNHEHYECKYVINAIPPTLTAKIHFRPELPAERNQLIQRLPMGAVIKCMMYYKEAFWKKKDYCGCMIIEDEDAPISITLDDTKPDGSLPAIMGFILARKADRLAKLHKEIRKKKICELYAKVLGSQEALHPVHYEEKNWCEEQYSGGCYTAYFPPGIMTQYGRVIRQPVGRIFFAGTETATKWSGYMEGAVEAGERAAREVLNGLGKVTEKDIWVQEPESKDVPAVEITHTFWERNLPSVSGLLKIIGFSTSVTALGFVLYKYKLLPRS
Experimental: (§1) The specificity of the different SSAO inhibitors was tested by determining their ability to inhibit MAO-A and MAO-B activities in vitro. Recombinant human MAO-A and human MAO-B enzymes were obtained from BD Biosciences (MA, USA). […] A pre-determined amount of inhibitor diluted in 0.2 M potassium phosphate buffer, pH 7.6, was added to each well, if required. […] Controls lacked inhibitor. The following agents were then added to a final reaction volume of 200 μl in 0.2 M potassium phosphate buffer, pH 7.6: 0.04 mg/ml of MAO-A or 0.07 mg/ml MAO-B enzyme, 15 μl of 10 mM tyramine substrate (for MAO-A), or 15 μl 100 mM benzylamine substrate (for MAO-B), and 50 μl of freshly made chromogenic solution (as above). The plates were incubated for 60 min at 37° C. The increase in absorbance, reflecting MAO activity, was measured at 490 nm using microplate spectrophotometer (Power Wave 40, Bio-Tek Inst.). Inhibition was presented as percent inhibition compared to control after correcting for background absorbance and IC50 values calculated using GraphPad Prism software.

recombinant human MAO-B = target: T2, recombinant human MAO-B (Homo sapiens, UniProt P27338); test: Inhibition of MAO-B activity, colorimetric; assay type: biochemical; conditions: for Specificity for SSAO vs. MAO-B: ratio IC50 MAO-B to IC50 SSAO
T2 construct: purchased BD Biosciences (MA, USA)
T2 sequence (P27338 1-520): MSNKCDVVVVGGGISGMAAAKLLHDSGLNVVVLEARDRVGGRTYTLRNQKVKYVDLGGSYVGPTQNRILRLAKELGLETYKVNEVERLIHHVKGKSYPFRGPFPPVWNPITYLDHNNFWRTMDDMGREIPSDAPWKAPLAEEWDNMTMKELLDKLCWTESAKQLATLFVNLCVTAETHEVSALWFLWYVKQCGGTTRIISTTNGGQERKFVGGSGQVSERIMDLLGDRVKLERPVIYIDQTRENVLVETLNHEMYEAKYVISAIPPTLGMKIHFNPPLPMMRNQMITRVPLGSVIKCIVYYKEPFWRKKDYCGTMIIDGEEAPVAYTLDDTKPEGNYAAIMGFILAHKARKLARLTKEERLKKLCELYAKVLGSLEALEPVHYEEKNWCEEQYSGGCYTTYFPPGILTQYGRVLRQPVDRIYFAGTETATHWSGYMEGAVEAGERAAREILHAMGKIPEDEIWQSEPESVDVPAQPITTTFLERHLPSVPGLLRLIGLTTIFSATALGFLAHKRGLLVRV
Experimental: as §1

[1] = target: T3, SSAO (bovine plasma amine oxidase, PAO) (Bos taurus, UniProt Q29437); test: In vitro inhibition of SSAO activity, coupled colorimetric method; assay type: biochemical
T3 construct: Bovine plasma amine oxidase (PAO) was purchased from Worthington Biochemical; purchased Worthington Biochemical (Lakewood, N.J.)
T3 sequence (Q29437 17-762): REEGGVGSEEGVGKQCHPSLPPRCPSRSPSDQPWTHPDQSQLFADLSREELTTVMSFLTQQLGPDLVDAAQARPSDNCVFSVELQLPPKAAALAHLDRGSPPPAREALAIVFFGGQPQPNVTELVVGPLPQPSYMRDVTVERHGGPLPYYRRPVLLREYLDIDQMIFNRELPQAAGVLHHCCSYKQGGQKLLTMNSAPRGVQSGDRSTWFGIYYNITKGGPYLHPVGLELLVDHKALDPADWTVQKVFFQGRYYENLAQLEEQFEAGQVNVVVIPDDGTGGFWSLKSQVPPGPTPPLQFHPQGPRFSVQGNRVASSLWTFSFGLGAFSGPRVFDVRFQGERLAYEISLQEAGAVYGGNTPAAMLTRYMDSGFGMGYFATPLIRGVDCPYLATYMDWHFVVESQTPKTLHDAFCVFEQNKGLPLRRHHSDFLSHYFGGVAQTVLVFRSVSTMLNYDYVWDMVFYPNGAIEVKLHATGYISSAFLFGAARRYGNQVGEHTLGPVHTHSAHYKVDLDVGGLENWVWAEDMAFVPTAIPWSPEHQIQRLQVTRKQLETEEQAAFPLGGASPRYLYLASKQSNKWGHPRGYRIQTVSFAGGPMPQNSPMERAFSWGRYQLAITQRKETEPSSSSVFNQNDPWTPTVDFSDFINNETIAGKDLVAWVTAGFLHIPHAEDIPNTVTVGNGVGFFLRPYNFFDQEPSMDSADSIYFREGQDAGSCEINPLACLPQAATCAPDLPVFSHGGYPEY
Experimental: SSAO activity was measured using the coupled colorimetric method essentially as described for monoamine oxidase and related enzymes (Holt A. et al. (1997) Anal. Biochem. 244:384). Bovine plasma amine oxidase (PAO) was purchased from Worthington Biochemical (Lakewood, N.J.) and used as a source of SSAO for activity measurements. The SSAO assay was performed in 96 well microtitre plates as follows. A pre-determined amount of inhibitor diluted in 0.2 M potassium phosphate buffer, pH 7.6, was added to each well, if required. The amount of inhibitor varied in each assay but was generally at a final concentration of between 10 nM and 10 μM. Controls lacked inhibitor. In order to study the effects of potential inhibitors 50 μl of inhibitor solution were preincubated for 30 min at 37° C. with 0.4 mU of PAO in an a total volume of 130 μl of 0.2 M potassium phosphate buffer pH 7.6. Assays were then started by addition of 20 μl 10 mM benzylamine substrate and incubated for 20 min at 37° C. The following reagents were then added to a final reaction volume of 200 μl, 50 μl of freshly made chromogenic solution containing […] vanillic acid (Sigma # V-2250), […] 4-aminoantipyrine (Sigma # A-4328) and 12 U/ml horseradish peroxidase (Sigma # P-8250) in order to cause a change of 0.5 OD A490 per hour. This was within the linear response range of the assay. The plates were incubated for 1 hr at 37° C. and the increase in absorbance, reflecting SSAO activity, was measured at 490 nm using a microplate spectrophotometer (Power Wave 40, Bio-Tek Inst.). Inhibition was presented as percent inhibition compared to control after correcting for background absorbance and IC50 values calculated using GraphPad Prism software.

[2] = tested on: carrageenan-induced paw edema in Sprague Dawley rats; test: Carrageenan-induced rat paw edema; assay type: in vivo; conditions: 3 mg/kg oral 1 hour prior to carrageenan
Experimental: Female Sprague Dawley rats were used and compounds of the invention were injected i.p. at 100 mg/kg 15 minutes prior to carrageenan exposure. The control group was injected with an equal volume of vehicle (PBS). Edema in the paws was induced as previously described by injecting 50 μl of a 0.5% solution of carrageenan (Type IV Lambda, Sigma) in saline with a 27-G needle s.c. in the right foot pat. (See Whiteley P. E. and Dalrymple S. A. (1998) Models of inflammation: carrageenan-induced paw edema in the rat, in Current Protocols in Pharmacology. Enna S J, Williams M, Ferkany J W, Kenaki T, Porsolt R E and Sullivan J P, eds., pp 5.4.1-5.4.3, John Wiley & Sons, New York) The size of the tested foot of each animal was measured volumetrically, before induction of edema, and at 60, 120, and 180 min after carrageenan induction.
Briefly, SSAO inhibitors (30 mg/kg), indomethacin (3 mg/kg) and PBS were administered orally to rats 1 hour after carrageenan injections.
To investigate further the role of SSAO inhibition in the inflammatory response, studies were carried out to assess the effect of SSAO inhibition on prostaglandin E2 (PGE2) levels. Animals were divided into four therapeutic groups of eight rats each. […] The fourth group received 3 mg/kg of dexamethasone, i.p. 1 hour before paw inflammation. Three hours after carrageenan injection, rats were asphyxiated with CO2 and their hind paws removed. The paws were lacerated with a scalpel, suspended off the bottom of a polypropylene 1.5 ml tube with a micropipette tip and centrifuged to express the inflammatory fluid. The volume collected from each paw was determined and the fluid was analyzed by ELISA for PGE2 production using a commercial kit (R&D Systems, Minneapolis, Minn.) according to the manufacturer's instructions. […] Data were analyzed with GraphPad Prism software (San Diego, Calif.) by Dunnett's test following analysis of variance.

Structure (SMILES)	melting point	IC50 (recombinant human MAO-A)	Specificity for SSAO vs. MAO-A (recombinant human MAO-A)	IC50 (recombinant human MAO-B)	Specificity for SSAO vs. MAO-B (recombinant human MAO-B)	IC50 [1]	IC50 (recombinant human MAO-A; tyramine substrate, no pre-incubation, read-out: MAO-A Inhibitory Activity IC50)	IC50 ([1]; 30 min preincubation, benzylamine substrate, read-out: SSAO Inhibitory Activity IC50)	PGE2 levels in paw exudate [2]
C=C(CON)c1ccccc1 (as salt: hydrochloride) [Example 1, O-(2-phenyl-allyl)-hydroxylamine Hydrochloride]	101 to 102 °C								
C=C(CON)c1ccccc1 [Example 1, O-(2-phenyl-allyl)-hydroxylamine Hydrochloride]		900 µM	31,000	125 µM	4,300	0.029 µM			
C=C(CNN)c1ccc(Cl)cc1.Cl [Example 3, N-[2-(4′-chlorophenyl)-allyl]-hydrazine Hydrochloride]			20	24.5 µM	490		1 µM	0.05 µM	
C=C(CN(C)N)c1ccc(Cl)cc1.Cl [Example 4, N-[2-(4′-chlor-phenyl)-allyl]-N-methyl-hydrazine Hydrochloride]		260 µM	400	175 µM	269	0.65 µM			
C=C(CN(N)CC)c1ccc(Cl)cc1.Cl [Example 5, N-[2-(4′-Chlorophenyl)-allyl]-N-ethyl-hydrazine Hydrochloride]	150 to 151 °C	690 µM	726	155 µM	163	0.95 µM			
C=C(CN(C)NC)c1ccc(Cl)cc1.Cl [Example 6, N-[2-(4′-Chlorophenyl)-allyl]-N,N′-dimethylhydrazine Hydrochloride]	108 to 110 °C	300 µM	64	2.8 µM	0.60	4.7 µM			
C=C(CNNC)c1ccc(F)cc1.Cl [Example 7, N-[2-(4′-fluorophenyl)-allyl]-N′-methylhydrazine Hydrochloride]	128 to 129 °C	620 µM	230	210 µM	80	2.61 µM			
C=C(C)CNN.Cl [Example 9, (2-methyl-allyl)hydrazine Hydrochloride]		350 µM	6,300	20 µM	360	0.055 µM			
NOCC(O)c1ccccc1 (centres unmarked) [Example 11, 2-Aminooxyl-1-phenyl-ethanol Hydrochloride]		250 µM	5000	450 µM	9000	0.05 µM			
COc1ccc(C(O)CON)cc1OC (centres unmarked) [Example 12, 2-Aminooxy-1-(3′,4′-dimethoxyphenyl)-ethanol Hydrochloride]		3.6 µM	400,000	8200 µM	90,000	0.09 µM			
COc1ccc2c(c1)c(CC(=O)O)c(C)n2C(=O)c1ccc(Cl)cc1 [indomethacin, reference compound]									greater impact
